Experimental data as given in paper PMC12582325 (Proceedings of the National Academy of Sciences of the …, 2025).
Where “and” joins values, the source holds several entries; their conditions need not be identical. Equal entries are not always repeated. Where two headings read alike, the source gives them in different places. Where a SMILES comes first, the peptide text is derived from it.

Legend:
[1] = tested on: Bc.Ste2; type: cell-based, Botrytis cinerea
[2] = tested on: Fo.Ste2; type: cell-based, Fusarium oxysporum
[3] = tested on: Fg.Ste2; type: cell-based, Fusarium graminearum
[4] = tested on: Fo.Ste2; type: cell-based, Fusarium oxysporum; remark: listed apart in the source
[5] = tested on: empty (strain lacking a GPCR); type: cell-based, Saccharomyces cerevisiae
[6] = molecular target: T1, Sc Ste2 (Saccharomyces cerevisiae, UniProt D6VTK4); type: cell-based
T1 construct: The native Sc system and an empty construct were added as positive and negative controls; endogenous in cells; host or cells: Saccharomyces cerevisiae wild-type control strains GEN18 (MATa) and GEN27 (MATα)
T1 sequence (D6VTK4 1-431): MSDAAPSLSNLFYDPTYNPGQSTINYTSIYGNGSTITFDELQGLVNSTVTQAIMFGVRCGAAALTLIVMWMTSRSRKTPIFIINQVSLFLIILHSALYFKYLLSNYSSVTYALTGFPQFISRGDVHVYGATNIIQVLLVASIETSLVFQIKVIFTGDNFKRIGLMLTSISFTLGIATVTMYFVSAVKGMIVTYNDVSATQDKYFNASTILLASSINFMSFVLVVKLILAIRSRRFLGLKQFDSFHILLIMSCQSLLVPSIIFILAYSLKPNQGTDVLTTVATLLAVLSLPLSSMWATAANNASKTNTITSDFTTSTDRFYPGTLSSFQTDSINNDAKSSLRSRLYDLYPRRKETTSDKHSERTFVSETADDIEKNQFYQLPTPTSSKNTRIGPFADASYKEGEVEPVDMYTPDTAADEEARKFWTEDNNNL

[7] = tested on: Bc.Ste2; type: cell-based, Botrytis cinerea; remark: listed apart in the source
[8] = tested on: Mo Ste2 GPCR; type: cell-based, Magnaporthe oryzae
[9] = tested on: Fg.Ste2; type: cell-based, Fusarium graminearum; remark: listed apart in the source
[10] = tested on: Ca.Ste2; type: cell-based, Candida albicans
[11] = tested on: Nc Ste2 GPCR; type: cell-based, Neurospora crassa
[12] = tested on: Hj Ste2 GPCR (Hj.Hpr2); type: cell-based, Hypocrea jecorina
[13] = tested on: Bb.Ste2; type: cell-based, Beauveria bassiana
[14] = tested on: Bb.Ste2; type: cell-based, Beauveria bassiana; remark: listed apart in the source
[15] = tested on: Bb.Ste2; type: cell-based, Beauveria bassiana; remark: listed apart in the source
[16] = tested on: Fg.Ste2; conditions: SC-AS/Urea compared to SC media with ammonium sulfate alone
[17] = tested on: Fo.Ste2; type: cell-based, Fusarium oxysporum; remark: listed apart in the source
[18] = tested on: Hj.Hpr2; type: cell-based, Hypocrea jecorina
[19] = tested on: no_GPCR (negative control lacking a GPCR); type: cell-based, Saccharomyces cerevisiae; conditions: SC-AS/Urea compared to SC media with ammonium sulfate alone
[20] = tested on: F. oxysporum microconidia; assay: Germination of F. oxysporum microconidia; type: cell-based, Fusarium oxysporum f. sp. lycopersici 4287; set-up: Germination of F. oxysporum microconidia (data of Sup.Fig.10): unit not given here; conditions: for Germination of F. oxysporum microconidia (data of Sup.Fig.10): 400 μM pheromone, 13 h, at least 300 spores counted
Experimental: For F. oxysporum microconidia production, the strain was grown for 3 to 4 d in liquid potato dextrose broth (PDB) at 28 °C and 170 rpm. Germination media ([10]) was used for assessing the spore germination. RE was prepared by removing 2-wk-old tomato plants from vermiculite and washing the roots to remove any adhering substrates ([11]).
Supplementary Figure 10. Germination of F. oxysporum microconidia after 13 h of incubation in Germination Media at a cell density of […] microconidia/mL. The assay was performed with 400 μM of pheromone. All points represent the average of three biological replicates in which at least 300 spores were counted. Statistical significance was determined through one-way analysis of variance (ANOVA) with Dunnett’s multiple comparisons (✱p ≤ 0.05).

[21] = tested on: F. oxysporum germ tubes; conditions: gradient of 400 μM pheromone against the solvent (50% methanol); 13 h; water-agar; three biological replicates; Fig. 5A
Experimental: For the B. bassiana and F. oxysporum chemotropism assay and plant infection assays the pheromones were dissolved in 50% (v/v) MeOH to reach a concentration of 4,000 μM.
Fungal chemotropism was conducted as previously described ([11]). For each compound or combination of compounds tested, 300 hyphal tips were scored. All experiments were performed in three biological replicates.

[22] = tested on: Bc.Ste2; type: cell-based, Botrytis cinerea; conditions: 0.0005 μM Bc pheromone in combination with 10 μM peptide; four biological replicates; Fig. 2G
[23] = tested on: B. bassiana; type: cell-based, Beauveria bassiana; conditions: 20 hours
[24] = Fig. 1D mating matrix, pheromone secreted by MATa strain, MATα strain lacking a GPCR (empty), deep well plate, 20 h coculture
[25] = Fig. 1D mating matrix, pheromone secreted by MATa strain, GPCR in MATα strain, deep well plate, 20 h coculture, three technical plating replicates

Compound: CC(C)C[C@H](NC(=O)[C@H](CC(C)C)NC(=O)[C@H](CS)NC(=O)[C@@H](N)Cc1c[nH]c2ccccc12)C(=O)N[C@@H](CC(=O)O)C(=O)NCC(=O)N[C@@H](CCC(N)=O)C(=O)N1CCC[C@H]1C(=O)N[C@@H](CS)C(=O)N[C@@H](Cc1c[nH]c2ccccc12)C(=O)O [A6] (H-WCLLDGQPCW-OH; N-terminus and C-terminus assumed)
- Hillslope [1]: 0.5567
- logEC50 [1]: -8.01
- Sup.Fig.3A Bc.Ste2 biosensor response, group mean ([1]; 10 μM): 1.225

Compound: CC(C)C[C@H](NC(=O)[C@H](CS)NC(=O)[C@@H](N)Cc1c[nH]c2ccccc12)C(=O)N[C@@H](Cc1c[nH]c2ccccc12)C(=O)N[C@@H](CCCNC(=N)N)C(=O)NCC(=O)N[C@@H](CCC(N)=O)C(=O)N1CCC[C@H]1C(=O)N[C@@H](CS)C(=O)N[C@@H](Cc1c[nH]c2ccccc12)C(=O)O [A5] (H-WCLWRGQPCW-OH; N-terminus assumed)
- EC50 fold lower than that of the native Fo alpha pheromone [2]: at least 13 fold
- logEC50 [2]: -8.637

Compound: WCIQSGQPCW [A3, Fg.Ste2 - Agonist candidate from the YPL1 pheromone library]
- Sup.Fig.3A Fg.Ste2 biosensor response, group mean ([3]; Control mean 1, mean of n = 4): 1.455
- Activation of Fg.Ste2 biosensor, in words ([3]; chemically synthesized pheromone): almost no effect

Compound: QWCRIHGQSCW [Nc, alpha pheromone of Neurospora crassa]
- Diploid frequency (%) [4]: 0.0%
- Diploid frequency (%) [5, 24]: 0.1%
- Diploid frequency (%) [6]: 0.0%
- Diploid frequency (%) [7]: 0.1%
- Diploid frequency (%) [8, 25]: 0.0%
- Diploid frequency (%) [9, 25]: 0.0%
- Diploid frequency (%) [10]: 0.0%
- Diploid frequency (%) [11]: 2.8%
- Diploid frequency (%) [12]: 0.0%
- Diploid frequency (%) [13, 25]: 0.0%

Compound: CC(C)C[C@H](NC(=O)[C@H](CS)NC(=O)[C@@H](N)Cc1c[nH]c2ccccc12)C(=O)N[C@@H](CCCNC(=N)N)C(=O)N[C@H](C(=O)NCC(=O)N[C@@H](CCC(N)=O)C(=O)N1CCC[C@H]1C(=O)N[C@@H](CS)C(=O)N[C@@H](Cc1c[nH]c2ccccc12)C(=O)O)C(C)C [A1] (H-WCLRVGQPCW-OH; N-terminus and C-terminus assumed)
- logEC50 [14]: -9.317

Compound: NC(N)=O [Urea]
- Increase of diploids containing Bb.Ste2 [15]: fourfold
- Fold decrease in the abundance of diploids with Fg.Ste2 [16]: 0.8 fold
- Effect on abundance of diploids with Fo.Ste2 [17]: did not affect
- Fold increase of diploids containing Hj.Hpr2 [18]: 20 fold
- Effect on abundance of diploids with the control strain no_GPCR [19]: did not affect

Compound: WRWPCCWGQT [Scrambled, Scrambled version of F. oxysporum pheromone, negative control]
- Germination of F. oxysporum microconidia (data of Sup.Fig.10) ([20]; biological replicate 1 (first line)): 53,95
- Germination of F. oxysporum microconidia (data of Sup.Fig.10) ([20]; biological replicate 2 (second line)): 33,33
- Germination of F. oxysporum microconidia (data of Sup.Fig.10) ([20]; biological replicate 3 (third line)): 27,4
- Mean Diff, Solvent vs. peptide ([20]; Sup.Fig.10, Dunnett's multiple comparisons test, n = 3): 5,543
- Mean 2 (peptide), germination ([20]; Sup.Fig.10, Solvent control mean 43,77, mean of n = 3): 38,23
- Chemotropic response in F. oxysporum germ tubes [21]: did not
- Effect on activation of Bc.Ste2 by Bc pheromone, in words [22]: do not differ significantly from Bc alone
- Chemotropic response in Bb germ tubes [23]: did not

Compound: WHWLQLKPGQPMY [Sc, alpha pheromone of Saccharomyces cerevisiae]
- Diploid frequency (%) [4]: 0.0%
- Diploid frequency (%) [5, 24]: 0.2%
- Diploid frequency (%) [6]: 90.9%
- Diploid frequency (%) [7]: 0.1%
- Diploid frequency (%) [8, 25]: 0.2%
- Diploid frequency (%) [9, 25]: 0.0%
- Diploid frequency (%) [10]: 0.0%
- Diploid frequency (%) [11]: 0.0%
- Diploid frequency (%) [12]: 0.0%
- Diploid frequency (%) [13, 25]: 0.0%

Compound: NCCCC[C@H](NC(=O)[C@H](CO)NC(=O)CNC(=O)[C@H](CS)NC(=O)[C@@H](N)Cc1c[nH]c2ccccc12)C(=O)NCC(=O)N[C@@H](CCC(N)=O)C(=O)N1CCC[C@H]1C(=O)N[C@@H](CS)C(=O)N[C@@H](Cc1c[nH]c2ccccc12)C(=O)O [A2] (H-WCGSKGQPCW-OH; N-terminus and C-terminus assumed)
- Activation of Bb.Ste2 biosensor, in words [14]: higher EC50 values
- Hillslope [14]: 1.362
- logEC50 [14]: -3.661

Compound: WCYRIGEPCW [Hj, alpha pheromone of Hypocrea jecorina (Trichoderma reseei)]
- Diploid frequency (%) [4]: 0.0%
- Diploid frequency (%) [5]: 0.1%
- Diploid frequency (%) [6]: 0.0%
- Diploid frequency (%) [7]: 0.1%
- Diploid frequency (%) [8]: 0.1%
- Diploid frequency (%) [9]: 0.0%
- Diploid frequency (%) [10]: 0.1%
- Diploid frequency (%) [11]: 0.1%
- Diploid frequency (%) [12]: 0.1%
- diploid frequency (%), Plates, Hj [12]: 0.67% and 0.16% and 0.05% and 1.62% and 0.03% and 1.07% and 0.1% and 0.01%
- Sup.Fig.7B - Hj, group mean ([18]; pH=6): 0.1033
- Sup.Fig.7B - Hj, group mean ([18]; pH=7): 0.03
- qPCR, Hj + Hj ([18]; ph=7): 0.0033
- Diploid frequency (%) [13]: 4.9%
